Assay [1] has as its system Aspergillus fumigatus ATCC 28214. As to the kind of experiment: In vitro antifungal MIC, microtiter broth dilution. The settings on record: Aspergillus fumigatus, ATCC28214, 24 h, read-out: MIC values, A. fumigatus, 30°, 24 hours. For orientation: In broth dilution the organism is exposed to a series of concentrations in liquid medium.
Assay [2] has as its system Erysiphe graminis f. sp. tritici. As to the kind of experiment: Example D wheat powdery mildew. The class given is in vivo. The following applies: Blumeria graminis, 144 h, read-out: disease control rating, Ex. D. As for the experimental part:
The test compounds were dissolved in acetone in an amount equal to 6% of the final volume and then suspended at a concentration of 100 or 20 ppm in purified water containing 250 ppm of the surfactant TREM 014 (polyhydric alcohol esters). This suspension was sprayed to the point of run-off on wheat seedlings.

The subject of assay [3] is Cercosporidium personatum. Briefly: Example B Peanut Late Leafspot. It is filed as in vivo. The settings on record: Nothopassalora personata, read-out: disease control rating, Ex. B. Here is the method: The test compounds were dissolved in acetone in an amount equal to 6% of the final volume and then suspended at a concentration of 100 or 20 ppm in purified water containing 250 ppm of the surfactant TREM 014 (polyhydric alcohol esters). This suspension was sprayed to the point of run-off on peanut seedlings.

Assay [4] has as its system Candida albicans ATCC 11651. Briefly: In vitro antifungal MIC, microtiter broth dilution. The following applies: Candida albicans, ATCC11651, 24 h, read-out: MIC values, C. albicans, 30°, 24 hours.
The test system of assay [5] is Pyricularia oryzae. Briefly: whole plant or invertebrate. It is filed as in vivo. The settings on record: Pyricularia oryzae, 120 h; for pest or weed control at 100 ppm: read-out: disease control rating, Ex. E, 100 PPM; for pest or weed control at 20 ppm: read-out: disease control rating, Ex. E, 20 PPM.
The subject of assay [6] is Candida albicans ATCC 11651. Briefly: In vivo systemic Candida infection in mice, primary assay. The settings on record: Candida albicans, 150 mg/kg per day, read-out: % Survival. Also noted: species or system Candida albicans; CF-1 female mice. Put shortly: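 CF-1 female mice (20 g, 10 per group) were infected IV with 0.2 ml of 1×10^7/ml C. albicans ATCC 11651, then given test compound subcutaneously at 50 or 150 mg/kg/day at 1 and 6 h post-infection and once daily for three more days. Survival was followed for 21 days against infected untreated mice; ≥70% protection at 14 days was scored active.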

Assay [7] has as its system Venturia inaequalis. As to the kind of experiment: Example A apple scab. It is filed as in vivo. The settings on record: read-out: disease control rating, Ex. A. As for the experimental part:
The test compounds were dissolved in acetone in an amount equal to 6% of the final volume and then suspended at a concentration of 100 or 20 ppm in purified water containing 250 ppm of the surfactant TREM 014 (polyhydric alcohol esters). This suspension was sprayed to the point of run-off on apple seedings.

Assay [8] concerns Phytophthora infestans. Briefly: whole plant or invertebrate. The class given is in vivo. The settings on record: Phytophthora infestans, in Solanum lycopersicum, read-out: disease control rating, Ex. H, 100 PPM.
Assay [9] has as its system Plasmorpara viticola. As to the kind of experiment: Example I grape downy mildew. The class given is in vivo. The following applies: read-out: disease control rating, Ex. I. As for the experimental part: The test compounds were dissolved in acetone in an amount equal to 6% of the final volume and then suspended at a concentration of 100 or 20 ppm in purified water containing 250 ppm of the surfactant TREM 014 (polyhydric alcohol esters). This suspension was sprayed to the point of run-off on grape seedlings.

Assay [10] relates to Puccinia recondita. Briefly: Example G wheat leaf rust. The following applies: read-out: disease control rating, Ex. G. The class given is in vivo.
In assay [11] the test system is Pythium aphanadermatum. As to the kind of experiment: Example J cucumber damping off. It is filed as in vivo. Also noted: key to phytotoxicity entry, Ex. J: P: disease control was not measured due to phytoxicity. The settings on record: 5 kg/ha; for pest or weed control at 5000 g/ha: Pythium, 336 h, read-out: disease control rating, Ex. J. Here is the method: […] Seeds and soil were then inoculated with a mixture of sand, cereal and mycelium of the fungus Pythium aphanadermatum, causal agent of cucumber damping off, and incubated in a growth chamber at 30° C. for 14 days. Disease ratings were then made.

Assay [12] has as its system Rhizoctonia solani. As to the kind of experiment: Example F rice sheath blight. The class given is in vivo. The following applies: Rhizoctonia solani, 144 h, read-out: disease control rating, Ex. F. As for the experimental part: The test compounds were dissolved in acetone in an amount equal to 6% of the final volume and then suspended at a concentration of 100 or 20 ppm in purified water containing 250 ppm of the surfactant TREM 014 (polyhydric alcohol esters). This suspension was sprayed to the point of run-off on rice seedlings.

Assay [13] deals with Botrytis cinerea. As to the kind of experiment: Example C bean grey mold. The class given is in vivo. The settings on record: Botrytis cinerea, 24 h, read-out: disease control rating, Ex. C. Here is the method: The test compounds were dissolved in acetone in an amount equal to 6% of the final volume and then suspended at a concentration of 100 or 20 ppm in purified water containing 250 ppm of the surfactant TREM 014 (polyhydric alcohol esters). This suspension was sprayed to the point of run-off on broad bean seedlings.

SMILES strings stand for the structures. Values after ≈ are worked out from the molar mass of the structure shown. Read-outs that look alike come from different tables or passages of the source.

Regarding `C=C(c1ccc(C)cc1)C(O)(Cn1cncn1)c1ccc(F)cc1` (centres unmarked) [Example 721], the values for the MIC in assay [1] and in assay [4] were 12.5 µg/mL (≈ 38.7 µM) and 0.4 µg/mL (≈ 1.24 µM), respectively. The pest or weed control at 100 ppm was found to be 94% in assay [2]; 89% in assay [3]; 18% in [5]; 73% in assay [7]; 0% in [8]; 0% in assay [9]. Moreover, the pest or weed control at 100 ppm in [10] stood at 100%; in assay [12], 100%; in assay [13] it was 95%. Also, the responders at 150 mg/kg in assay [6] (ATCC11651, 168 h, day 7) stood at 100%; in assay [6] (ATCC11651, 336 h, day 14), 30%; in [6] (ATCC11651, 504 h, day 21) it was 30%. Further, the “phytotoxicity entry, Ex. J” value in [11] is on record as “P”.

As for `C=C(c1ccc(F)cc1)C(O)(Cn1cncn1)c1ccccc1` (centres unmarked) [Example 656], the values for the minimal inhibitory concentration (MIC) in assay [1] and in assay [4] were 12.5 µg/mL (≈ 40.4 µM) and ≤ 0.4 µg/mL, respectively. For the same compound, the pest or weed control at 100 ppm in assay [2] is 97%; in [3], 100%; in [5] it was 0%; in [7], 93%; in assay [8], 0%; in [9], 20%. Moreover, the pest or weed control at 100 ppm in [10] came out at 100%; in assay [12] it was 50%; in assay [13], 88%. In addition, the responders at 150 mg/kg in [6] (ATCC11651, 168 h, day 7) came out at 100%; in assay [6] (ATCC11651, 336 h, day 14), 90%; in assay [6] (ATCC11651, 504 h, day 21), 40%. Besides, the pest or weed control at 5000 g/ha in assay [11] turned out to be 0%.

`C=C(c1cccc(Cl)c1)C(O)(Cn1cncn1)c1ccccc1F` (centres unmarked) [Example 47]: the minimum inhibitory concentration (MIC) in [1] is 1.6 µg/mL (≈ 4.65 µM); in [4], 0.03 µg/mL (≈ 0.0873 µM). The pest or weed control at 20 ppm in assay [2] came to 98%; in [3] it was 100%; in [5], 15%; in assay [7] it was 93%; in assay [10], 100%; in assay [12] it was 0%. The pest or weed control at 20 ppm in assay [13] came to 26%. Besides, the pest or weed control at 100 ppm in assay [5] turned out to be 31%; in assay [8], 0%; in [9], 25%; in assay [12], 47%; in [13], 89%. Moreover, the responders at 150 mg/kg in assay [6] (ATCC11651, 168 h, day 7) is 90%; in [6] (ATCC11651, 336 h, day 14) it was 80%; in assay [6] (ATCC11651, 504 h, day 21), 30%.

As to `C=C(c1ccc(F)cc1)C(O)(Cn1cncn1)c1cccc(C(F)(F)F)c1` (centres unmarked) [Example 661], the minimal inhibitory concentration (MIC) in [1] worked out at 100 µg/mL (≈ 265 µM); in assay [4], 1.6 µg/mL (≈ 4.24 µM). Besides, the pest or weed control at 20 ppm in assay [2] amounted to 62%; in assay [3] it was 79%; in assay [5] it was 0%; in [7], 81%; in assay [10], 100%; in [12] it was 10%. The pest or weed control at 20 ppm in [13] is 61%. The pest or weed control at 100 ppm in assay [5] was 0%; in assay [8], 5%; in assay [9], 85%; in assay [12], 70%; in assay [13], 56%. In addition, the responders at 150 mg/kg in assay [6] (ATCC11651, 168 h, day 7) was determined as 50%; in assay [6] (ATCC11651, 336 h, day 14) it was 20%; in assay [6] (ATCC11651, 504 h, day 21), 0%.

As for `C=C(c1ccc(Cl)cc1)C(O)(Cn1cncn1)c1ccc(Cl)c(Cl)c1` (centres unmarked) [Example 675], the MIC in assay [1] was determined as 25 µg/mL (≈ 63.3 µM); in assay [4], 0.1 µg/mL (≈ 0.253 µM). Besides, the pest or weed control at 20 ppm in assay [2] stood at 44%; in assay [3] it was 0%; in assay [5], 0%; in assay [7], 40%; in [10], 16%; in [12] it was 0%. Moreover, in assay [13], the pest or weed control at 20 ppm was determined as 42%. Further, the pest or weed control at 100 ppm in assay [5] amounted to 0%; in assay [8], 0%; in assay [9], 69%; in assay [12] it was 62%; in assay [13] it was 30%. The responders at 150 mg/kg in [6] (ATCC11651, 168 h, day 7) is 100%; in [6] (ATCC11651, 336 h, day 14) it was 60%; in assay [6] (ATCC11651, 504 h, day 21), 0%.

Regarding `C=C(CN1CC(C)OC(C)C1)C(O)(Cn1cncn1)c1ccc(F)cc1` (centres unmarked) [Example 477], the pest or weed control at 100 ppm in assay [2] was determined as 100%; in assay [3], 100%; in assay [5], 48%; in [7] it was 95%; in assay [8] it was 0%; in [9] it was 0%. The pest or weed control at 100 ppm in [10] was 100%; in assay [12], 48%; in assay [13] it was 76%. Also, in [4], the minimal inhibitory concentration (MIC) was > 100 µg/mL. The “phytotoxicity entry, Ex. J” value in assay [11] was “P”.

For the compound `C=C(c1ccccc1C(F)(F)F)C(O)(Cn1cncn1)c1ccc(F)cc1` (centres unmarked) [Example 724], the MIC in assay [1] and in assay [4] was 0.4 µg/mL (≈ 1.06 µM) in each case. Also, the pest or weed control at 100 ppm in assay [2] is 100%; in [3], 100%; in assay [5], 63%; in [7], 100%; in assay [8] it was 0%; in assay [9], 0%. Besides, the pest or weed control at 100 ppm was 100% in assay [10], 100% in assay [12] and 95% in assay [13]. The responders at 150 mg/kg in assay [6] (ATCC11651, 168 h, day 7) worked out at 100%; in assay [6] (ATCC11651, 336 h, day 14), 90%; in assay [6] (ATCC11651, 504 h, day 21), 40%. Moreover, the pest or weed control at 5000 g/ha in assay [11] turned out to be 0%.

The MIC is the least concentration at which growth counts as inhibited.

Values taken from patent publication US4965280A, “Antifungal carbinols” (E. I. Du Pont de Nemours and Company, priority 1989, dated 1990).
